{"source": "paper PMC12302426", "about": "“Dihydrokoumine, a dual-target analgesic with reduced side effects isolated from a traditional Chinese medicine” (Journal of Advanced Research, 2024)", "key": {"[1]": {"assay": "Pharmacokinetics, blood-brain barrier permeability", "assay_type": "in vivo, C57BL/6 male mice", "description": "Blood‐brain barrier permeability evaluation was as follows. C57BL/6 male mice (about 25 g) were used in evaluation of blood‐brain barrier permeability (n = 3). Mice were given a single dose of DK (20 mg/kg, 5 mL/kg, i.p.) through intraperitoneal injection. Blood (300 μL) was collected at 0.167, 0.5, 1, 2, 3 and 4 h into EDTA tubes. Plasma was obtained by mixing with acetonitrile and centrifugation (3000 r/min, 10 min). Meanwhile, brains were excised after saline perfusion at these time points. Brain samples were grinded (70 Hz, 90 s) and sonicated (30 s) to break up the tissue, followed by centrifugation (15,000 r/min, 10 min, […]) to obtain brain sample.\nBrain and plasma drug levels were measured by LC-30AD (Shimadzu Corporation Kyoto, Japan) and SCIEX QTRAP-6500 (AB Sciex, Foster City, CA, USA) and calculated by comparing with internal standard (koumine, 200 ng/mL). The used column was Waters ACQUITY UPLC BEH C18 (2.1*150 mm, 1.7 μm); the mobile phase was composed of (A) 0.1 % FA in water and (B) 0.1 % FA in ACN; the elution gradient was 20 % B (0–3 min), 20–40 % B (3–5 min), 40–95 % B (5–6 min); the flow rate was 0.3 mL/min; and detection was in the positive mode."}, "[2]": {"target": "T1, M5R (Homo sapiens, UniProt P08912)", "T1 construct": "expressed in transfected cells", "T1 sequence (P08912 whole entry)": "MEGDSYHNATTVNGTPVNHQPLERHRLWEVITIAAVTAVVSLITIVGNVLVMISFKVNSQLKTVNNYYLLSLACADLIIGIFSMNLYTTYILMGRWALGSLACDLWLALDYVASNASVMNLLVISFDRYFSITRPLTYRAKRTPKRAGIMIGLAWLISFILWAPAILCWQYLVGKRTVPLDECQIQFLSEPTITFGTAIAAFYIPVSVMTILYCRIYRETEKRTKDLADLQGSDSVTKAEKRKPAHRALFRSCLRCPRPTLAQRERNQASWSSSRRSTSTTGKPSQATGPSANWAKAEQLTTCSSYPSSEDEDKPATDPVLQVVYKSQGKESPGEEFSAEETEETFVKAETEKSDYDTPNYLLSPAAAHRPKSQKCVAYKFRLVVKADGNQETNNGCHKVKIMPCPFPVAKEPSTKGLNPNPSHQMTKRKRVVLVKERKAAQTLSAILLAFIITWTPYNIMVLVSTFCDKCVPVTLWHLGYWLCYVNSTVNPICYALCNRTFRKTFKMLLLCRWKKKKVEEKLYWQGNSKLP", "assay": "FLIPR assay in CHO-M5 cells (carbachol-induced Ca2+)", "assay_type": "cell-based", "conditions": "DK pretreatment one hour", "description": "FLIPR assay was carried out as reported earlier. Cell lines were seeded in 96-well plates with black walls (Greiner, USA) at 8.0 × 10^4 cells per well. After approximately 22 h of incubation, the cells were exposed to Calcium-6 dye (Molecular Devices, USA) in HBSS buffer supplemented with 20 mM HEPES (pH 7.4) at 37°C for one hour. Samples, redissolved in DMSO and housed in 96-well drug plates, underwent dilution with FLIPR buffer and subsequent automated introduction to the cells. […] […] Results were presented as fluorescence (arbitrary units) plotted against time."}, "[3]": {"test_system": "CHO cells", "assay": "Cytotoxicity assay (CCK-8), CHO", "assay_type": "cell-based", "conditions": "24 h", "description": "HEK293T, CHO, and HUVEC cell lines were cultured overnight in 96-well plates before exposure to compounds for 24 h. Cell viability was evaluated using the Cell Counting Kit-8 (CCK-8, Beyotime Biotechnology, China), and absorbance at 450 nm was measured with a microplate reader. Cell survival rates were calculated relative to control conditions."}, "[4]": {"target": "T2, NOP opioid receptor (Homo sapiens, UniProt P41146)", "T2 construct": "expressed in transfected cells; host or cells: HEK293-NOP", "T2 sequence (P41146 whole entry)": "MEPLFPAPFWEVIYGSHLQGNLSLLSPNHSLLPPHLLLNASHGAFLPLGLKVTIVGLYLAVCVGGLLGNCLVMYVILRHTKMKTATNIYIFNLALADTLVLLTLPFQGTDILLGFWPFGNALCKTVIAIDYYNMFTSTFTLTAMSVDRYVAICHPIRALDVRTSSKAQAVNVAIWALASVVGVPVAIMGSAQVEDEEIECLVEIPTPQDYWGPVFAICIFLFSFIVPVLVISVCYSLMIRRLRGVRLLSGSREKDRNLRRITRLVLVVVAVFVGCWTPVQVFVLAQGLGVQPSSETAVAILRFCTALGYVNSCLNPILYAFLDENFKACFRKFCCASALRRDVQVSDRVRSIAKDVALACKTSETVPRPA", "assay": "DMR agonist and desensitization assay in HEK293-NOP cells", "assay_type": "cell-based", "description": "(§1) DMR assays were performed using an Epic® BT system (Corning, NY, USA). All used cell lines were directly seeded in Epic 384-well biosensor microplates with a seeding density of 25,000 cells per well. After being cultured for about 22 h, the cells formed a monolayer with a confluency of about 95 % in the cell culture medium. Then the cells were manually washed using assay buffer (1 × HBSS buffer, 10 mM HEPES, pH = 7.4) and maintained in 30 μL of the assay buffer for 1 h. All samples were dissolved in DMSO and diluted freshly with the assay buffer containing 0.1 % BSA.\nThe DMR assays were conducted as follows. […] In the case of the DMR desensitization assay, cells were pretreated with analytes for one hour before introducing a specific agonist at the indicated concentration, and the agonist-induced DMR signals were monitored for one hour. Finally, for the DMR antagonist assay, cells underwent a 1-hour pretreatment with an antagonist before the addition of a specific agonist at the indicated concentration, and subsequent DMR signals were recorded over one hour.\nThe receptor selectivity was evaluated against a set of G protein-coupled receptors (GPCRs), including opioid receptor (Delta/Kappa/NOP), dopamine receptor (D1/D2), orphan receptor (GPR35), adrenergic receptor (α2A/β2), serotonin receptor (5HT2A), histamine receptor (H1) and cannabinoid receptor (CB1). […]"}, "[5]": {"target": "T3, dopamine receptor D2 (Homo sapiens, UniProt P14416)", "T3 construct": "expressed in transfected cells; host or cells: HEK293-D2", "T3 sequence (P14416 whole entry)": "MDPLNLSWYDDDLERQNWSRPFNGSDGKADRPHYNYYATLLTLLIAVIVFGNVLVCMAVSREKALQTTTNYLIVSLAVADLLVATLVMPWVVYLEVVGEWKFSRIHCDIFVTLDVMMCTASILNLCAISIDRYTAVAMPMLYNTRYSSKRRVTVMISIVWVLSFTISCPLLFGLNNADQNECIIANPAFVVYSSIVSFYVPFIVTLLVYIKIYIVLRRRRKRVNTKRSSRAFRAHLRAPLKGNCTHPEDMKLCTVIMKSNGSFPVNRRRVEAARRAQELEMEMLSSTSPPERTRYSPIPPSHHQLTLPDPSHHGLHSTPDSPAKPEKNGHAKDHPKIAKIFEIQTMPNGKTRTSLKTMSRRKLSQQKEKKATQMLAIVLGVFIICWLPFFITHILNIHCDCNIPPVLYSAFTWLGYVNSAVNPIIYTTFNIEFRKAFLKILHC", "assay": "DMR desensitization assay, HEK293-D2, probe dopamine", "assay_type": "cell-based", "conditions": "100 μM DK", "description": "as §1\nThe receptor selectivity was evaluated against a set of G protein-coupled receptors (GPCRs), including opioid receptor (Delta/Kappa/NOP), dopamine receptor (D1/D2), orphan receptor (GPR35), adrenergic receptor (α2A/β2), serotonin receptor (5HT2A), histamine receptor (H1) and cannabinoid receptor (CB1). Following a 1-hour pretreatment with DK, a 2-min baseline was established before introducing probes and monitoring DMR signals for another hour. The cells and probes were as follows: Delta, HEK293-Delta, SNC162; Kappa, HEK293-Kappa, ICI199441; NOP, HEK293-NOP, MCOPPB; D1, HEK293-D1, dopamine; D2, HEK293-D2, dopamine; GPR35, CHO-K1-hGPR35, zaprinast; 5HT2A, HEK293-5HT2A, 5-hydroxytryptamine; α2A, HEK293-α2A, L-Noradrenaline; β2, A431, isoprenaline; H1, A431, histamine; CB1, CHO-K1-CB1, CP 55940. […]"}, "[6]": {"test_system": "C57BL/6 male mice", "assay": "Rotarod test (motor coordination, sedation)", "assay_type": "in vivo", "conditions": "DK 20, 40 mg/kg i.p., one hour before testing", "description": "Motor coordination were evaluated by the rotarod test, which was conducted as previously reported. Six-week-old C57BL/6 male mice were used in […] (n = 6). Mice underwent a three-day training period, twice daily (9:00 am and 3:00 pm), to make them stay balanced on the rotarod apparatus (Columbus), with a 3 cm diameter and rotating at a constant 11 rpm. Motor coordination was evaluated through mice's endurance on the rotating rod. Selection criteria included mice maintaining balance for 60–120 s. On the fourth day, mice were intraperitoneally injected (5 mL/kg) with a solvent mixture, morphine (5 mg/kg), or DK (20, 40 mg/kg) one hour before testing. Latency to fall (in seconds) was recorded after placing mice on the rotarod, with a 120-second cut-off time."}}}
{"smiles": "C=CC12CN(C)C3CC14c1ccccc1NC4C1CC2C3CO1", "note": "(stereo not drawn) [DK]", "values": [{"measurement": "Kp", "setting": "[1]; male, C57BL/6, mouse, brain/plasma, ip, 20 mg/kg, read-out: Kp (AUCbrain/AUCplasma)", "result": 1.27}, {"measurement": "AUC", "setting": "[1]; male, C57BL/6, mouse, ip, mice, plasma, i.p., 20 mg/kg (method), read-out: (AUC)0-4 h in plasma", "result": 733, "unit": "ng·h/mL"}, {"measurement": "(AUC)0-4 h in brain", "setting": "[1]; mice, brain, i.p., 20 mg/kg (method)", "result": 933.4, "unit": "ng·h/g"}, {"measurement": "inhibition of carbachol-induced Ca2+ response", "setting": "[2]", "result": "could not concentration-dependently inhibit"}, {"measurement": "cytotoxicity (cell viability)", "setting": "[3]", "result": "noncytotoxic"}, {"measurement": "DMR agonist response", "setting": "[4]; HEK293-NOP cells", "result": "unable to trigger a concentration-dependent DMR response"}, {"measurement": "probe-induced DMR response after DK pretreatment", "setting": "[4]; HEK293-NOP, 25 nM MCOPPB, pretreatment one hour", "result": "had little effect on the DMR response produced by the respective probes"}, {"measurement": "reduction of probe DMR response (desensitization)", "setting": "[5]", "result": "almost unable to reduce the response"}, {"measurement": "sedative effect (locomotion, latency to fall)", "setting": "[6]", "result": "not a sedative at the tested doses"}]}
